Entries after “also recorded” stand apart in the source; their conditions may differ.
Experiments:
wild-type C6 cells = test: Ca2+ imaging (Fura-2), leptin and CCK-8s signalling interaction in wild-type C6 cells; format: cell-based, rat
Protocol: (§1) Rat C6 glioma cells were cultured in Dulbecco’s Modified Eagle Medium/F12 (DMEM/F12) supplemented with 10% FBS, sodium bicarbonate (1.2 g/L), and 1% penicillin/streptomycin antibiotics at 37 °C in 5% CO2. The full-length mouse leptin receptor (ObRb) in pcDNA3.1 vector was kindly provided by Dr. Christian Bjørbaek (BIDMC, Harvard Medical School, Boston, MA, USA) and transfected using Lipofectamine 2000. Subsequently, the cells were cultured in medium containing 500 μg/mL G418 for cell selection.
C6 cells plated on 35 mm plastic dishes were gently rinsed with buffered salt solution (BSS) consisting of 130 mM NaCl, 5.4 mM KCl, 2 mM CaCl2, 1 mM MgCl2, 5.5 mM D-glucose, and 10 mM HEPES/NaOH (pH 7.4), and incubated in BSS supplemented with 6 µM Fura-2 AM (Dojindo Laboratories, Kumamoto, Japan) for 30 min in a CO2 incubator. Prior to photometry, the cells were rinsed again with BSS, incubated at 37°C for 15 min, and then continuously perfused with BSS at 34°C at a flow rate of 3 mL/min. Fluorescence images were obtained using an upright microscope (Axioplan2; Carl Zeiss, Thornwood, NY, USA) with a water-immersion objective (Achroplan×20 NA0.5w; Carl Zeiss). The wavelength of the excitation UV light (340 nm or 380 nm pulse; 250 msec) was switched using a filter wheel (Lambda 10-2; Sutter Instruments, Novato, CA, USA). The UV light was generated by a full spectrum 300W Xenon bulb (Lambda LS; Sutter Instruments), conducted to the microscope through a liquid light guide. The pair of fluorescent images was processed using a band-pass filter (485–515 nm) and exposed to a multiple format cooled CCD camera (CoolSnap-fx; Photometrics, Tucson, AZ, USA) at 6-sec intervals. The filter wheel and the CCD camera were controlled using digital imaging software (MetaFluor ver. 6.2; Japan Molecular Devices, Tokyo, Japan). The background fluorescence was also subtracted using the software.
During image acquisition, leptin (PeproTech, Rocky Hill, NJ, USA), CCK-4 (Peptide Institute, Inc., Osaka, Japan), CCK-8s (Sigma-Aldrich, St. Louis, MO, USA), AG490 (Calbiochem, San Diego, CA), LY294002 (Calbiochem), LY225910 (R&D Systems, Minneapolis, MN, USA), LGM (LKT Laboratories Inc., St. Paul, MN, USA), and ATP (Sigma-Aldrich) were applied by switching the perfusate. The magnitude of Ca^2+ responses was determined by peak area analysis using Origin 5.0 software (OriginLab, Northampton, MA, USA).

pSTAT3 in C6-ObRb cells = test: Immunofluorescent staining of pSTAT3 in C6-ObRb cells; format: cell-based, rat C6 cells, mouse ObRb; conditions: for cytosolic pSTAT3 signal with kinase inhibitor: AG490 1 µM or LY294002 50 µM
Protocol: as §1
[…] Cells were treatment with AG490 (1 μM) or LY294002 (50 μM) 15 min prior to the leptin stimulation until the time of fixation. These cells were fixed in 4% phosphate-buffered paraformaldehyde for 15 min and washed three times with PBS(−). The fixed samples were then incubated for 2 h at room temperature in 10% donkey serum dissolved in 0.1% Triton-X PBS(−). Next, samples were incubated with 1:100 affinity-purified rabbit phospho-STAT3 (pTyr^705) dissolved in 5% donkey serum PBS(−) for 24 h at 4 °C. After three 20-min PBS(−) rinses, samples were incubated in 1:400 Cy3-conjugated donkey anti-rabbit IgG for 2 h at room temperature. Finally, samples were rinsed with PBS(−) (four 15-min rinses on an orbital shaker) and mounted using Vectashield containing 4′,6-diamidino-2-phenylindole (DAPI).
(§2) Images were acquired using a confocal laser-scanning microscope (Olympus FV1000 or Nikon A1R MP plus) with a laser diode (405 nm), argon laser (488 nm), and helium neon laser ([…]). The nuclear immunofluorescent intensity (8-bit depth) was analyzed using Photoshop CS 6 software.

[1] = tested on: c-Fos and pSTAT3 in the ARC; test: Nuclear c-Fos and pSTAT3 in ARC after i.p. LGM; format: in vivo, rat; conditions: LGM 10 mg/kg i.p., 3 h, after RF, versus saline
Protocol: (§3) To investigate the cellular consequences underlying the above behavioral responses, the different groups of rats that received RF were killed 3-h after the LGM (10 mg/kg) or saline injections. Subsequently, nuclear pSTAT3-ir and c-Fos-ir were visualized in the […] by immunohistochemistry. An astrocyte marker (glial fibrillary acidic protein, GFAP) was counterstained as a landmark of ARC because ARC is the astrocyte-rich ventral neuronal nucleus (Fig. 8A). […]
as §2
(§4) Male rats aged 2–3 months were individually housed in originally designed cylindrical chambers (30 cm ϕ, H30 cm). […] Because the bottom of the pellet server was placed 22 cm above the floor, purposeful food access behavior, but not general locomotor activities, was counted using this system. The ON/OFF signals from the sensor were fed into a laptop computer through a photo-coupler isolated digital I/O card (Contec Inc. PIO-16/16L) and automatically counted at 3-min intervals by software written by M.I.

VMN cells = test: Ca2+ imaging in rat VMN slices; format: cell-based; conditions: LGM 1 µM; leptin 1–1,000 nM; p < 0.01 two-way ANOVA
CCK-1 receptor = test: Food access frequency after i.p. LGM following 1-h restricted feeding; format: in vivo, rat; conditions: LGM 10 mg/kg i.p., 3 h before re-feeding; n = 5–6 per group; p < 0.05
Protocol: Male rats aged 2–3 months were individually housed in originally designed cylindrical chambers (30 cm ϕ, H30 cm). Food was given ad libitum from slits of stainless pellet server placed 22 cm above the floor. During the RF, rats were fed with fatty food paste composed of 50% nutrient commixture chow powder, 20% soybean oil, and 30% water on a glass dish. Following removal of the dish, sterilized saline (1 ml/kg body weight) were i.p. injected. Leftover food paste was weighed after RF to calculate daily intake. Rats were acclimatized to this environment for 4 days. On day 5 of RF, saline or LGM (2 or 10 mg/kg body weight) dissolved in saline was injected. Three hours after the drug injection, rats were re-fed with regular chow in a previously setup pellet server. A touch sensing probe (Elekit PS-306) was connected to the pellet server. Because the bottom of the pellet server was placed 22 cm above the floor, purposeful food access behavior, but not general locomotor activities, was counted using this system. The ON/OFF signals from the sensor were fed into a laptop computer through a photo-coupler isolated digital I/O card (Contec Inc. PIO-16/16L) and automatically counted at 3-min intervals by software written by M.I.

[2] = tested on: c-Fos and pSTAT3 in the VMN; test: Nuclear c-Fos and pSTAT3 in VMN after i.p. LGM; format: in vivo, rat; conditions: LGM 10 mg/kg i.p., 3 h, after RF, versus saline
Protocol: as §3, §2, §4

[3] = tested on: CCK-2 receptor (C6 cells); test: Ca2+ imaging (Fura-2), CCK-2 antagonism added to LGM in C6 cells; format: cell-based, rat; conditions: LY225910 100 nM additional to LGM 100 nM; CCK-8s 10 nM; p < 0.01
Protocol: as §1
(§5) C6 cells plated on 35 mm plastic dishes were gently rinsed with buffered salt solution (BSS) consisting of 130 mM NaCl, 5.4 mM KCl, 2 mM CaCl2, 1 mM MgCl2, 5.5 mM D-glucose, and 10 mM HEPES/NaOH (pH 7.4), and incubated in BSS supplemented with 6 µM Fura-2 AM (Dojindo Laboratories, Kumamoto, Japan) for 30 min in a CO2 incubator. Prior to photometry, the cells were rinsed again with BSS, incubated at 37°C for 15 min, and then continuously perfused with BSS at 34°C at a flow rate of 3 mL/min. Fluorescence images were obtained using an upright microscope (Axioplan2; Carl Zeiss, Thornwood, NY, USA) with a water-immersion objective (Achroplan×20 NA0.5w; Carl Zeiss). The wavelength of the excitation UV light (340 nm or 380 nm pulse; 250 msec) was switched using a filter wheel (Lambda 10-2; Sutter Instruments, Novato, CA, USA). […] The background fluorescence was also subtracted using the software. […]

[4] = tested on: CCK-2 receptor (C6 cells); test: Ca2+ imaging (Fura-2), CCK-2 receptor agonist response in C6 cells; format: cell-based, rat; conditions: CCK-4 100 nM; n = 35/three dishes; Fura-2, 34°C, BSS pH 7.4
Protocol: as §1, §5

[5] = tested on: meal frequency / meal size; conditions: CCK; cited from earlier work
Description: Although CCK and leptin have been commonly described as satiety controlling peptides, their differential roles have also been highlighted. […] Among the wide variety of intracellular signalling machineries linked to ObRb, it is still uncertain which pathway(s) is/are linked to what type of satiety controls. pSTAT3-ir is used as a genera ...

[6] = tested on: Zucker fa/fa rats lacking functional leptin receptors; conditions: cited from earlier work
Description: (§6) Also, the effect of CCK on satiety control is attenuated in Zucker fa/fa rats lacking functional leptin receptors. In addition, other evidence implicated that leptin-mediated satiety-controlling systems may strongly interact with CCK systems[18],[50]–[54]. For example, c-Fos expression in oxytocin neurons in the hypothalamic paraventricular nucleus is elevated by leptin administration, and these neurons have axons tha ...

rats = conditions: sub-threshold CCK and leptin, individually no effect on feeding; cited from earlier work
Description: as §6

mice = conditions: sub-threshold CCK and leptin, individually no effect on feeding; cited from earlier work
Description: as §6

Molecule: N#C/C(=C/c1ccc(O)c(O)c1)C(=O)NCc1ccccc1 [AG490]
- effect of JAK inhibitor on leptin amplification of CCK-8s-induced Ca2+ mobilization (wild-type C6 cells; AG490 1 μM, 10 min, leptin pre-treatment, CCK-8s, n = 48/three dishes): leptin failed to amplify the CCK-8s-induced Ca^2+ mobilization; also recorded: significantly reduced leptin action for CCK-8s-induced Ca^2+ mobilization
- nuclear pSTAT3-ir with JAK inhibitor (pSTAT3 in C6-ObRb cells; AG490 1 µM from 15 min prior to leptin stimulation until fixation, 30 images/three dishes, p < 0.01): significantly reduced nuclear pSTAT3-ir below the level of un-stimulated controls; also recorded: blocked leptin-induced nuclear pSTAT3 elevation
- cytosolic pSTAT3 signal with kinase inhibitor (pSTAT3 in C6-ObRb cells): cytosolic pSTAT3 signal was not elevated

Molecule: Nc1ncnc2c1ncn2[C@@H]1O[C@H](COP(=O)(O)OP(=O)(O)OP(=O)(O)O)[C@@H](O)[C@H]1O [ATP]
- Ca2+ mobilization, positive control (wild-type C6 cells; ATP 100 µM at the end of experiment): High Ca^2+ mobilization

Molecule: CCCCCN(CCCCC)C(=O)C(CCC(=O)O)NC(=O)c1ccc(Cl)c(Cl)c1 (stereo not shown) [LGM, lorglumide]
- number of cells displaying c-Fos-ir, ARC [1]: failed to modulate the number of cells displaying c-Fos-ir
- number of cells displaying pSTAT3-ir, ARC ([1]; 14 images in four rats, p < 0.01): increased number of cells displaying pSTAT3-ir
- effect of CCK-1 antagonist on leptin-induced Ca2+ responses (VMN cells): reduced leptin-induced Ca^2+ responses
- food access frequency at the onset of re-feeding relative to saline control (CCK-1 receptor): 1.8 times
- number of cells displaying c-Fos-ir, VMN ([2]; 18 images in four rats, p < 0.05): significantly decreased the number of cells displaying c-Fos-ir
- number of cells displaying pSTAT3-ir, VMN ([2]; P < 0.05): increased number of cells displaying pSTAT3-ir

Molecule: CC(C)Oc1cccc(-n2c(CCc3c[nH]c4ccc(Br)cc34)nc3ccccc3c2=O)c1 [LY225910]
- reduction of CCK-8s-induced Ca2+ transients [3]: almost completely reduced

Molecule: O=c1cc(N2CCOCC2)oc2c(-c3ccccc3)cccc12 [LY294002]
- effect of PI3K inhibitor on (leptin-amplified) CCK-8s-induced Ca2+ mobilization (wild-type C6 cells; LY294002 50 µM, 10 min, leptin pre-treatment, CCK-8s, n = 45/three dishes): significantly inhibited CCK-8s-induced Ca^2+ mobilization; also recorded: significantly reduced leptin action for CCK-8s-induced Ca^2+ mobilization
- cytosolic pSTAT3 signal with kinase inhibitor (pSTAT3 in C6-ObRb cells): cytosolic pSTAT3 signal was not elevated
- nuclear pSTAT3-ir with PI3K inhibitor (pSTAT3 in C6-ObRb cells; LY294002 50 µM from 15 min prior to leptin stimulation until fixation, 30 images/three dishes, p < 0.01): significantly reduced nuclear pSTAT3-ir below the level of un-stimulated controls; also recorded: blocked leptin-induced nuclear pSTAT3 elevation

Molecule: CCK-4
- C6 cells displaying Ca2+ transients [4]: approximately 20%

Molecule: cholecystokinin [CCK]
- meal frequency [5]: reduce meal frequency
- effect of CCK on satiety control in Zucker fa/fa rats [6]: attenuated
- food intake, co-administration with leptin (rats): dramatically reduced food intake
- food intake, co-administration with leptin (mice): dramatically reduced food intake
